# Laboratory results taken from PubChem BioAssay (NCI).
# Several values for one entry are separate records, joined by “and”; a condition that tells them apart may be missing. Equal entries are not always repeated.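 Values below derive from 48-hour exposures of cells grown in 96-well plates, with endpoints linearly interpolated between the two concentrations bracketing the appropriate inhibition level. Here, GI50 denotes the concentration required for 50% inhibition of growth. TGI: concentration producing complete growth inhibition.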
# Columns and labels:
# Experiment in all cases: NCI tumour cell line growth inhibition, 48 h
# 786-0 renal = system: 786-0 renal
# A498 renal = system: A498 renal
# A549 NSCLC = system: A549 NSCLC
# ACHN renal = system: ACHN renal
# CAKI-1 renal = system: CAKI-1 renal
# CCRF-CEM leukemia = system: CCRF-CEM leukemia
# COLO 205 colon = system: COLO 205 colon
# DLD-1 colon = system: DLD-1 colon
# DMS 273 small cell lung = system: DMS 273 small cell lung
# HCC-2998 colon = system: HCC-2998 colon
# HCT-116 colon = system: HCT-116 colon
# HCT-15 colon = system: HCT-15 colon
# HL-60(TB) leukemia = system: HL-60(TB) leukemia
# HOP-18 NSCLC = system: HOP-18 NSCLC
# HOP-92 NSCLC = system: HOP-92 NSCLC
# HT29 colon = system: HT29 colon
# IGROV1 ovarian = system: IGROV1 ovarian
# K-562 leukemia = system: K-562 leukemia
# KM12 colon = system: KM12 colon
# KM20L2 colon = system: KM20L2 colon
# LOX IMVI melanoma = system: LOX IMVI melanoma
# LXFL 529 NSCLC = system: LXFL 529 NSCLC
# M14 melanoma = system: M14 melanoma
# M19-MEL melanoma = system: M19-MEL melanoma
# MALME-3M melanoma = system: MALME-3M melanoma
# MOLT-4 leukemia = system: MOLT-4 leukemia
# NCI-H226 lung = system: NCI-H226 lung
# NCI-H23 lung = system: NCI-H23 lung
# NCI-H460 lung = system: NCI-H460 lung
# NCI-H522 lung = system: NCI-H522 lung
# OVCAR-3 ovarian = system: OVCAR-3 ovarian
# OVCAR-4 ovarian = system: OVCAR-4 ovarian
# OVCAR-5 ovarian = system: OVCAR-5 ovarian
# OVCAR-8 ovarian = system: OVCAR-8 ovarian
# RPMI-8226 leukemia = system: RPMI-8226 leukemia
# RXF 393 renal = system: RXF 393 renal
# RXF-631 renal = system: RXF-631 renal
# SF-268 CNS = system: SF-268 CNS
# SK-MEL-2 melanoma = system: SK-MEL-2 melanoma
# SK-MEL-28 melanoma = system: SK-MEL-28 melanoma
# SK-OV-3 ovarian = system: SK-OV-3 ovarian
# SN12C renal = system: SN12C renal
# SNB-75 CNS = system: SNB-75 CNS
# SNB-78 CNS = system: SNB-78 CNS
# SW-620 colon = system: SW-620 colon
# TK-10 renal = system: TK-10 renal
# U251 CNS = system: U251 CNS
# UACC-257 melanoma = system: UACC-257 melanoma
# UACC-62 melanoma = system: UACC-62 melanoma
# UO-31 renal = system: UO-31 renal
# DMS 114 small cell lung = system: DMS 114 small cell lung
# EKVX NSCLC = system: EKVX NSCLC
# HOP-62 NSCLC = system: HOP-62 NSCLC
# SF-295 CNS = system: SF-295 CNS
# SF-539 CNS = system: SF-539 CNS
# SNB-19 CNS = system: SNB-19 CNS
# SR leukemia = system: SR leukemia
# XF 498 CNS = system: XF 498 CNS
# BT-549 breast = system: BT-549 breast
# DU-145 prostate = system: DU-145 prostate
# HS 578T breast = system: HS 578T breast
# MDA-MB-231 breast = system: MDA-MB-231 breast
# PC-3 prostate = system: PC-3 prostate
# T-47D breast = system: T-47D breast
# SK-MEL-5 melanoma = system: SK-MEL-5 melanoma
structure (smiles),measurement,setting,value
CCN(CC)CCCC(C)Nc1c(Sc2cnc3cc(Cl)ccc3c2NC(C)CCCN(CC)CC)cnc2cc(Cl)ccc12 (stereo unspecified),TGI,786-0 renal,3.01 µM
same,TGI,A498 renal,3.31 µM
same,TGI,A549 NSCLC,3.24 µM
same,TGI,ACHN renal,3.82 µM
same,TGI,CAKI-1 renal,2.86 µM
same,TGI,CCRF-CEM leukemia,5.21 µM
same,TGI,COLO 205 colon,2.88 µM
same,TGI,DLD-1 colon,3.84 µM
same,TGI,DMS 273 small cell lung,3.17 µM
same,TGI,HCC-2998 colon,1.14 µM
same,TGI,HCT-116 colon,2.95 µM
same,TGI,HCT-15 colon,3.16 µM
same,TGI,HL-60(TB) leukemia,3.62 µM
same,TGI,HOP-18 NSCLC,4.49 µM
same,TGI,HOP-92 NSCLC,4.07 µM
same,TGI,HT29 colon,3.65 µM
same,TGI,IGROV1 ovarian,3.51 µM
same,TGI,K-562 leukemia,3.7 µM
same,TGI,KM12 colon,3.79 µM
same,TGI,KM20L2 colon,3.09 µM
same,TGI,LOX IMVI melanoma,3.36 µM
same,TGI,LXFL 529 NSCLC,3.38 µM
same,TGI,M14 melanoma,3.29 µM
same,TGI,M19-MEL melanoma,3.02 µM
same,TGI,MALME-3M melanoma,3.71 µM
same,TGI,MOLT-4 leukemia,4.57 µM
same,TGI,NCI-H226 lung,3.52 µM
same,TGI,NCI-H23 lung,9.25 µM
same,TGI,NCI-H460 lung,3.23 µM
same,TGI,NCI-H522 lung,3.15 µM
same,TGI,OVCAR-3 ovarian,3.78 µM
same,TGI,OVCAR-4 ovarian,3.22 µM
same,TGI,OVCAR-5 ovarian,3.34 µM
same,TGI,OVCAR-8 ovarian,3.15 µM
same,TGI,RPMI-8226 leukemia,4.55 µM
same,TGI,RXF 393 renal,3220 nM
same,TGI,RXF-631 renal,4.48 µM
same,TGI,SF-268 CNS,3.83 µM
same,TGI,SK-MEL-2 melanoma,3.3 µM
same,TGI,SK-MEL-28 melanoma,3.34 µM
same,TGI,SK-OV-3 ovarian,3.08 µM
same,TGI,SN12C renal,3.53 µM
same,TGI,SNB-75 CNS,2980 nM
same,TGI,SNB-78 CNS,4.74 µM
same,TGI,SW-620 colon,2.92 µM
same,TGI,TK-10 renal,3.24 µM
same,TGI,U251 CNS,2.99 µM
same,TGI,UACC-257 melanoma,3.49 µM
same,TGI,UACC-62 melanoma,3.13 µM
same,TGI,UO-31 renal,35.5 µM
CC(=O)NNc1nc(C)c(C(=O)/C=C/c2ccc(/C=C/C(=O)c3sc(NNC(C)=O)nc3C)cc2)s1,TGI,786-0 renal,> 100 µM
same,TGI,A549 NSCLC,> 100 µM
same,TGI,ACHN renal,> 100 µM
same,TGI,CAKI-1 renal,> 100 µM
same,TGI,CCRF-CEM leukemia,> 100 µM
same,TGI,COLO 205 colon,> 100 µM
same,TGI,DLD-1 colon,> 100 µM
same,TGI,DMS 114 small cell lung,> 100 µM
same,TGI,DMS 273 small cell lung,> 100 µM
same,TGI,EKVX NSCLC,> 100 µM
same,TGI,HCC-2998 colon,> 100 µM
same,TGI,HCT-116 colon,> 100 µM
same,TGI,HCT-15 colon,> 100 µM
same,TGI,HL-60(TB) leukemia,> 100 µM
same,TGI,HOP-62 NSCLC,> 100 µM
same,TGI,HT29 colon,> 100 µM
same,TGI,IGROV1 ovarian,> 100 µM
same,TGI,K-562 leukemia,> 100 µM
same,TGI,KM12 colon,> 100 µM
same,TGI,LOX IMVI melanoma,> 100 µM
same,TGI,LXFL 529 NSCLC,> 100 µM
same,TGI,M14 melanoma,> 100 µM
same,TGI,M19-MEL melanoma,> 100 µM
same,TGI,MALME-3M melanoma,> 100 µM
same,TGI,MOLT-4 leukemia,> 100 µM
same,TGI,NCI-H226 lung,> 100 µM
same,TGI,NCI-H23 lung,> 100 µM
same,TGI,NCI-H460 lung,> 100 µM
same,TGI,NCI-H522 lung,> 100 µM
same,TGI,OVCAR-3 ovarian,> 100 µM
same,TGI,OVCAR-4 ovarian,> 100 µM
same,TGI,OVCAR-5 ovarian,> 100 µM
same,TGI,OVCAR-8 ovarian,> 100 µM
same,TGI,RXF 393 renal,> 100000 nM
same,TGI,RXF-631 renal,> 100 µM
same,TGI,SF-268 CNS,> 100 µM
same,TGI,SF-295 CNS,> 100 µM
same,TGI,SF-539 CNS,> 100 µM
same,TGI,SK-MEL-2 melanoma,> 100 µM
same,TGI,SK-MEL-28 melanoma,> 100 µM
same,TGI,SK-OV-3 ovarian,> 100 µM
same,TGI,SN12C renal,> 100 µM
same,TGI,SNB-19 CNS,> 100 µM
same,TGI,SNB-78 CNS,> 100 µM
same,TGI,SR leukemia,> 100 µM
same,TGI,SW-620 colon,> 100 µM
same,TGI,TK-10 renal,> 100 µM
same,TGI,U251 CNS,> 100 µM
same,TGI,UACC-257 melanoma,> 100 µM
same,TGI,UACC-62 melanoma,> 100 µM
same,TGI,UO-31 renal,> 100 µM
same,TGI,XF 498 CNS,> 100 µM
COc1cccc2c1C(=O)c1c(O)c3c(c(O)c1C2=O)C[C@@](O)(C(=O)CO)C[C@@H]3OC1CC(N2CCOCC2C#N)C(O)C(C)O1 (stereo partly specified),GI50,786-0 renal,0.0534 nM and 0.0331 nM
same,TGI,786-0 renal,0.00224 µM and 0.00151 µM and 0.00447 µM
same,TGI,A498 renal,0.00104 µM and 0.000139 µM
same,GI50,ACHN renal,0.078 nM and 0.023 nM
same,TGI,BT-549 breast,0.000234 µM and 0.00023 µM
same,TGI,DU-145 prostate,0.02 µM
same,TGI,EKVX NSCLC,0.00075 µM and 0.000901 µM
same,TGI,HCC-2998 colon,0.000208 µM and 0.000237 µM
same,TGI,HOP-92 NSCLC,0.000614 µM and 0.000566 µM
same,TGI,HS 578T breast,0.0535 nM and 0.221 nM
same,TGI,KM12 colon,0.00155 µM and 0.000377 µM and 0.00259 µM
same,GI50,LXFL 529 NSCLC,0.000245 µM
same,GI50,M14 melanoma,0.0812 nM
same,TGI,M14 melanoma,0.000108 µM and 0.000527 µM
same,TGI,MDA-MB-231 breast,0.000812 µM
same,TGI,NCI-H522 lung,0.000411 µM and 0.000129 µM
same,TGI,PC-3 prostate,0.000124 µM and 0.00112 µM
same,TGI,RXF 393 renal,0.0982 nM and 0.0513 nM
same,TGI,RXF-631 renal,0.00227 µM and 0.0215 µM
same,TGI,SF-539 CNS,0.0001 µM and 0.000109 µM
same,TGI,SK-MEL-28 melanoma,0.000481 µM and 0.000552 µM
same,TGI,SNB-75 CNS,0.11 nM and 0.0613 nM
same,GI50,SR leukemia,0.0468 nM
same,TGI,T-47D breast,0.00327 µM and 0.00581 µM
same,GI50,TK-10 renal,0.000278 µM and 0.000374 µM
same,TGI,XF 498 CNS,0.000397 µM and 0.000282 µM
COc1cc(/C=C\c2ccncc2)cc(OC)c1OC,TGI,786-0 renal,> 100 µM
same,TGI,A498 renal,> 100 µM
same,TGI,A549 NSCLC,> 100 µM
same,TGI,ACHN renal,> 100 µM
same,TGI,CAKI-1 renal,> 100 µM
same,TGI,CCRF-CEM leukemia,> 100 µM
same,TGI,COLO 205 colon,> 100 µM
same,TGI,DLD-1 colon,> 100 µM
same,TGI,DMS 114 small cell lung,> 100 µM
same,TGI,DMS 273 small cell lung,> 100 µM
same,TGI,EKVX NSCLC,> 100 µM
same,TGI,HCT-116 colon,> 100 µM
same,TGI,HCT-15 colon,> 100 µM
same,TGI,HL-60(TB) leukemia,> 100 µM
same,TGI,HOP-18 NSCLC,> 100 µM
same,TGI,HOP-62 NSCLC,> 100 µM
same,TGI,HOP-92 NSCLC,> 100 µM
same,TGI,HT29 colon,> 100 µM
same,TGI,IGROV1 ovarian,> 100 µM
same,TGI,K-562 leukemia,> 100 µM
same,TGI,KM12 colon,> 100 µM
same,TGI,KM20L2 colon,> 100 µM
same,TGI,LOX IMVI melanoma,> 100 µM
same,TGI,LXFL 529 NSCLC,> 100 µM
same,TGI,M14 melanoma,> 100 µM
same,TGI,MALME-3M melanoma,> 100 µM
same,TGI,MOLT-4 leukemia,> 100 µM
same,TGI,NCI-H226 lung,> 100 µM
same,TGI,NCI-H460 lung,> 100 µM
same,TGI,NCI-H522 lung,> 100 µM
same,TGI,OVCAR-3 ovarian,> 100 µM
same,TGI,OVCAR-4 ovarian,> 100 µM
same,TGI,OVCAR-5 ovarian,> 100 µM
same,TGI,OVCAR-8 ovarian,> 100 µM
same,TGI,RPMI-8226 leukemia,> 100 µM
same,TGI,RXF 393 renal,> 100000 nM
same,TGI,RXF-631 renal,> 100 µM
same,TGI,SF-268 CNS,> 100 µM
same,TGI,SF-295 CNS,> 100 µM
same,TGI,SF-539 CNS,> 100 µM
same,TGI,SK-MEL-28 melanoma,> 100 µM
same,TGI,SK-MEL-5 melanoma,> 100 µM
same,TGI,SN12C renal,> 100 µM
same,TGI,SNB-19 CNS,> 100 µM
same,TGI,SNB-75 CNS,> 100000 nM
same,TGI,SNB-78 CNS,> 100 µM
same,TGI,SW-620 colon,> 100 µM
same,TGI,TK-10 renal,> 100 µM
same,TGI,U251 CNS,> 100 µM
same,TGI,UACC-257 melanoma,> 100 µM
same,TGI,UACC-62 melanoma,> 100 µM
same,TGI,UO-31 renal,> 100 µM
same,TGI,XF 498 CNS,> 100 µM
